Holding throughout (assay type): functional
The subject of assay [1] is Trichophyton rubrum. In words: Antifungal activity against Trichophyton rubrum after 7 days by NCCLS protocol based method. Conditions: 168 h.
For assay [2], the system named is Cryptococcus neoformans. Briefly: Antifungal activity against Cryptococcus neoformans after 72 hrs by NCCLS protocol based method.
The subject of assay [3] is Candida tropicalis. In words: Antifungal activity against Candida tropicalis after 24 hrs by NCCLS protocol based method.
For assay [4], the system named is Candida parapsilosis. In words: Antifungal activity against Candida parapsilosis after 24 hrs by NCCLS protocol based method. The following applies: Lodderomyces parapsilosis.
The subject of another assay is Fonsecaea compacta. In words: Antifungal activity against Fonsecaea compacta after 24 hrs by NCCLS protocol based method.
Assay [5] has as its system Candida albicans. Briefly: Antifungal activity against Candida albicans after 24 hrs by NCCLS protocol based method.
Assay [6] concerns Candida tropicalis. Briefly: Antifungal activity against Candida tropicalis.
Assay [7] deals with Candida albicans. Briefly: Antifungal activity against Candida albicans.
The subject of assay [8] is Trichophyton rubrum. Briefly: Antifungal activity against Trichophyton rubrum.
The test system of assay [9] is Cryptococcus neoformans. Briefly: Antifungal activity against Cryptococcus neoformans.
The subject of a further assay is Aspergillus fumigatus. In words: Antifungal activity against Aspergillus fumigatus.
Assay [10] concerns Candida parapsilosis. In words: Antifungal activity against Candida parapsilosis.
Another assay has as its system Kluyveromyces marxianus. In words: Antifungal activity against Candida kefyr.

In brackets after ≈: the same amount, converted by molar mass.

The term MIC80 denotes an inhibitory concentration at the 80% level, which refers to growth in some studies and to a panel of isolates in others. Low readings indicate greater potency, high ones weaker potency. Take `Cc1ccc(C(=O)OC2CCN(CC(O)(Cn3cncn3)c3ccc(F)cc3F)CC2)cc1` (stereo unspecified): the MIC80 against Trichophyton rubrum [1], with Cryptococcus neoformans [2], against Candida tropicalis [3], against Candida parapsilosis [4], in the assay with Fonsecaea compacta and against Candida albicans [5] was 3.9 to 62.5 ng/mL (≈ 8.54 to 137 nM) each time.
Consider `Cc1ccc(C(=O)OC2CCN(CC(O)(Cn3cncn3)c3ccc(F)cc3F)CC2)cc1C` (stereo unspecified), for which the MIC80 against Trichophyton rubrum [1], against Cryptococcus neoformans [2], in the assay with Candida tropicalis [3], in the assay on Candida parapsilosis [4], against Fonsecaea compacta and with Candida albicans [5] was 3.9 to 62.5 ng/mL (≈ 8.29 to 133 nM) in each case.
In general, MIC refers to the lowest concentration found to suppress growth. Turning to `C#CCN(Cc1cccc(C#N)c1)CC(O)(Cn1cncn1)c1ccc(F)cc1F` (stereo unspecified), the minimal inhibitory concentration (MIC) against Candida tropicalis [6], in the assay on Candida albicans [7], in the assay with Trichophyton rubrum [8], with Cryptococcus neoformans [9], against Aspergillus fumigatus and with Candida parapsilosis [10] was 0.24 to 250 ng/mL in each case. In addition, in the assay on Kluyveromyces marxianus, the MIC lay in the range of 0.24 to 250 ng/mL.
With `C#CCN(Cc1ccc(OC)cc1)CC(O)(Cn1cncn1)c1ccc(F)cc1F` (stereo unspecified), the minimum inhibitory concentration (MIC) against Candida tropicalis [6], in the assay on Candida albicans [7], against Trichophyton rubrum [8], with Cryptococcus neoformans [9], with Aspergillus fumigatus and in the assay with Candida parapsilosis [10] was 0.24 to 250 ng/mL throughout. This compound also came in with a minimal inhibitory concentration (MIC) with Kluyveromyces marxianus of 0.24 to 250 ng/mL.
On to `O=C(OC1CCN(CC(O)(Cn2cncn2)c2ccc(F)cc2F)CC1)c1ccc(F)cc1` (stereo unspecified), for which the MIC80 against Trichophyton rubrum [1], against Cryptococcus neoformans [2], in the assay on Candida tropicalis [3], with Candida parapsilosis [4], against Fonsecaea compacta and in the assay on Candida albicans [5] was 3.9 to 62.5 ng/mL (≈ 8.47 to 136 nM) throughout.
`O=C(OC1CCN(CC(O)(Cn2cncn2)c2ccc(F)cc2F)CC1)c1cccc(F)c1` (stereo unspecified): the MIC80 with Trichophyton rubrum [1], against Cryptococcus neoformans [2], in the assay on Candida tropicalis [3], against Candida parapsilosis [4], against Fonsecaea compacta and against Candida albicans [5] was 3.9 to 62.5 ng/mL (≈ 8.47 to 136 nM) throughout.
With `O=C(OC1CCN(CC(O)(Cn2cncn2)c2ccc(F)cc2F)CC1)c1ccccc1Cl` (stereo unspecified), the MIC80 in the assay on Trichophyton rubrum [1], against Cryptococcus neoformans [2], in the assay on Candida tropicalis [3], in the assay on Candida parapsilosis [4], with Fonsecaea compacta and in the assay with Candida albicans [5] was 3.9 to 62.5 ng/mL (≈ 8.18 to 131 nM) in each case.
Consider `C#CCN(Cc1ccc([N+](=O)[O-])cc1)CC(O)(Cn1cncn1)c1ccc(F)cc1F` (stereo unspecified), for which the minimal inhibitory concentration (MIC) in the assay with Candida tropicalis [6], in the assay on Candida albicans [7], against Trichophyton rubrum [8], against Cryptococcus neoformans [9], with Aspergillus fumigatus and against Candida parapsilosis [10] was 0.24 to 250 ng/mL throughout. The same compound came in with a minimal inhibitory concentration (MIC) in the assay on Kluyveromyces marxianus of 0.24 to 250 ng/mL.
In the case of `O=C(OC1CCN(CC(O)(Cn2cncn2)c2ccc(F)cc2F)CC1)c1ccc(Cl)cc1Cl` (stereo unspecified), the MIC80 with Trichophyton rubrum [1], with Cryptococcus neoformans [2], in the assay on Candida tropicalis [3], in the assay on Candida parapsilosis [4], with Fonsecaea compacta and in the assay on Candida albicans [5] was 3.9 to 62.5 ng/mL (≈ 7.63 to 122 nM) each time.
Regarding `O=C(OC1CCN(CC(O)(Cn2cncn2)c2ccc(F)cc2F)CC1)c1ccccc1Br` (stereo unspecified), the MIC80 with Trichophyton rubrum [1], in the assay with Cryptococcus neoformans [2], with Candida tropicalis [3], with Candida parapsilosis [4], in the assay on Fonsecaea compacta and in the assay on Candida albicans [5] was 3.9 to 62.5 ng/mL (≈ 7.48 to 120 nM) throughout.
On to `C#CCN(Cc1ccc(C#N)cc1)CC(O)(Cn1cncn1)c1ccc(F)cc1F` (stereo unspecified), for which the minimum inhibitory concentration (MIC) in the assay with Candida tropicalis [6], against Candida albicans [7], with Trichophyton rubrum [8], in the assay with Cryptococcus neoformans [9], in the assay with Aspergillus fumigatus and in the assay with Candida parapsilosis [10] was 0.24 to 250 ng/mL each time. For the same compound, the MIC against Kluyveromyces marxianus was 0.24 to 250 ng/mL.
For `Cc1ccccc1C(=O)OC1CCN(CC(O)(Cn2cncn2)c2ccc(F)cc2F)CC1` (stereo unspecified), the MIC80 in the assay on Trichophyton rubrum [1], with Cryptococcus neoformans [2], in the assay on Candida tropicalis [3], against Candida parapsilosis [4], in the assay on Fonsecaea compacta and in the assay with Candida albicans [5] was 3.9 to 62.5 ng/mL (≈ 8.54 to 137 nM) throughout.
Regarding `C#CCN(Cc1ccccc1C#N)CC(O)(Cn1cncn1)c1ccc(F)cc1F` (stereo unspecified), the MIC in the assay on Candida tropicalis [6], against Candida albicans [7], against Trichophyton rubrum [8], in the assay on Cryptococcus neoformans [9], in the assay on Aspergillus fumigatus and in the assay on Candida parapsilosis [10] was 0.24 to 250 ng/mL throughout. Besides, the minimal inhibitory concentration (MIC) in the assay with Kluyveromyces marxianus lay within 0.24 to 250 ng/mL.
In the case of `O=C(OC1CCN(CC(O)(Cn2cncn2)c2ccc(F)cc2F)CC1)c1ccccc1F` (stereo unspecified), the MIC80 against Trichophyton rubrum [1], with Cryptococcus neoformans [2], in the assay with Candida tropicalis [3], in the assay with Candida parapsilosis [4], in the assay on Fonsecaea compacta and against Candida albicans [5] was 3.9 to 62.5 ng/mL (≈ 8.47 to 136 nM) each time.
Turning to `Cc1cccc(C(=O)OC2CCN(CC(O)(Cn3cncn3)c3ccc(F)cc3F)CC2)c1` (stereo unspecified), the MIC80 in the assay with Trichophyton rubrum [1], in the assay with Cryptococcus neoformans [2], against Candida tropicalis [3], against Candida parapsilosis [4], against Fonsecaea compacta and against Candida albicans [5] was 3.9 to 62.5 ng/mL (≈ 8.54 to 137 nM) throughout.
`C#CCN(Cc1ccccc1[N+](=O)[O-])CC(O)(Cn1cncn1)c1ccc(F)cc1F` (stereo unspecified): the MIC against Candida tropicalis [6], in the assay with Candida albicans [7], in the assay on Trichophyton rubrum [8], in the assay with Cryptococcus neoformans [9], with Aspergillus fumigatus and with Candida parapsilosis [10] was 0.24 to 250 ng/mL in each case. The compound also showed a minimal inhibitory concentration (MIC) in the assay on Kluyveromyces marxianus of 0.24 to 250 ng/mL.
As for `C#CCN(Cc1ccc(Cl)cc1Cl)CC(O)(Cn1cncn1)c1ccc(F)cc1F` (stereo unspecified), the MIC with Candida tropicalis [6], in the assay with Candida albicans [7], in the assay on Trichophyton rubrum [8], against Cryptococcus neoformans [9], against Aspergillus fumigatus and in the assay with Candida parapsilosis [10] was 0.24 to 250 ng/mL each time. The compound also gave an MIC in the assay on Kluyveromyces marxianus of 0.24 to 250 ng/mL.
`C#CCN(Cc1c(Cl)cccc1Cl)CC(O)(Cn1cncn1)c1ccc(F)cc1F` (stereo unspecified): the MIC with Candida tropicalis [6], in the assay on Candida albicans [7], with Trichophyton rubrum [8], against Cryptococcus neoformans [9], against Aspergillus fumigatus and against Candida parapsilosis [10] was 0.24 to 250 ng/mL in each case. Also, the MIC against Kluyveromyces marxianus was in the range of 0.24 to 250 ng/mL.
`O=C(OC1CCN(CC(O)(Cn2cncn2)c2ccc(F)cc2F)CC1)c1ccccc1I` (stereo unspecified): the MIC80 with Trichophyton rubrum [1], against Cryptococcus neoformans [2], in the assay with Candida tropicalis [3], with Candida parapsilosis [4], in the assay with Fonsecaea compacta and in the assay with Candida albicans [5] was 3.9 to 62.5 ng/mL (≈ 6.86 to 110 nM) in each case.
Turning to `O=C(OC1CCN(CC(O)(Cn2cncn2)c2ccc(F)cc2F)CC1)c1ccccc1` (stereo unspecified), the MIC80 against Trichophyton rubrum [1], against Cryptococcus neoformans [2], with Candida tropicalis [3], against Candida parapsilosis [4], against Fonsecaea compacta and with Candida albicans [5] was 3.9 to 62.5 ng/mL (≈ 8.81 to 141 nM) in each case.
Regarding `Cc1ccc(C(=O)OC2CCN(CC(O)(Cn3cncn3)c3ccc(F)cc3F)CC2)c(C)c1` (stereo unspecified), the MIC80 against Trichophyton rubrum [1], against Cryptococcus neoformans [2], in the assay on Candida tropicalis [3], in the assay with Candida parapsilosis [4], in the assay with Fonsecaea compacta and against Candida albicans [5] was 3.9 to 62.5 ng/mL (≈ 8.29 to 133 nM) throughout.
Regarding `O=C(OC1CCN(CC(O)(Cn2cncn2)c2ccc(F)cc2F)CC1)c1cccc(Cl)c1` (stereo unspecified), the MIC80 with Trichophyton rubrum [1], against Cryptococcus neoformans [2], with Candida tropicalis [3], in the assay on Candida parapsilosis [4], against Fonsecaea compacta and against Candida albicans [5] was 3.9 to 62.5 ng/mL (≈ 8.18 to 131 nM) each time.
For `COc1ccccc1C(=O)OC1CCN(CC(O)(Cn2cncn2)c2ccc(F)cc2F)CC1` (stereo unspecified), the MIC80 in the assay with Trichophyton rubrum [1], in the assay on Cryptococcus neoformans [2], in the assay on Candida tropicalis [3], against Candida parapsilosis [4], against Fonsecaea compacta and with Candida albicans [5] was 3.9 to 62.5 ng/mL (≈ 8.25 to 132 nM) throughout.
As for `C#CCN(Cc1ccccc1)CC(O)(Cn1cncn1)c1ccc(F)cc1F` (stereo unspecified), the MIC with Candida tropicalis [6], against Candida albicans [7], against Trichophyton rubrum [8], against Cryptococcus neoformans [9], against Aspergillus fumigatus and in the assay on Candida parapsilosis [10] was 0.24 to 250 ng/mL throughout. Moreover, the MIC against Kluyveromyces marxianus is 0.24 to 250 ng/mL.
For the compound `C#CCN(Cc1cccc([N+](=O)[O-])c1)CC(O)(Cn1cncn1)c1ccc(F)cc1F` (stereo unspecified), the minimal inhibitory concentration (MIC) in the assay on Candida tropicalis [6], in the assay with Candida albicans [7], against Trichophyton rubrum [8], against Cryptococcus neoformans [9], against Aspergillus fumigatus and against Candida parapsilosis [10] was 0.24 to 250 ng/mL throughout. This compound also gave an MIC with Kluyveromyces marxianus of 0.24 to 250 ng/mL.
For the compound `O=C(OC1CCN(CC(O)(Cn2cncn2)c2ccc(F)cc2F)CC1)c1ccc(Cl)cc1` (stereo unspecified), the MIC80 in the assay on Trichophyton rubrum [1], in the assay with Cryptococcus neoformans [2], against Candida tropicalis [3], against Candida parapsilosis [4], in the assay with Fonsecaea compacta and against Candida albicans [5] was 3.9 to 62.5 ng/mL (≈ 8.18 to 131 nM) throughout.

The record behind these values is ChEMBL document CHEMBL4396865, “Current advances of triazole alcohols derived from fluconazole: Design, in vitro and in silico studies” (2019).
